Source: ChEMBL document CHEMBL4732086, “Targeting nuclear protein TDP-43 by cell division cycle kinase 7 inhibitors: A new therapeutic approach for amyotrophic lateral sclerosis” (Eur J Med Chem, 2021)
Activity calls are given as the source filed them.

How the values were obtained:
[1] = target: RAC-beta serine/threonine-protein kinase (Homo sapiens) (UniProt P31751); assay: Inhibition of recombinant full length human His-tagged AKT2 using serine/threonine-06 peptide as substrate at 10 uM incubated for 60 mins in presence of ATP by Z'-LYTE assay
RAC-beta serine/threonine-protein kinase (Homo sapiens), sequence (P31751 whole entry): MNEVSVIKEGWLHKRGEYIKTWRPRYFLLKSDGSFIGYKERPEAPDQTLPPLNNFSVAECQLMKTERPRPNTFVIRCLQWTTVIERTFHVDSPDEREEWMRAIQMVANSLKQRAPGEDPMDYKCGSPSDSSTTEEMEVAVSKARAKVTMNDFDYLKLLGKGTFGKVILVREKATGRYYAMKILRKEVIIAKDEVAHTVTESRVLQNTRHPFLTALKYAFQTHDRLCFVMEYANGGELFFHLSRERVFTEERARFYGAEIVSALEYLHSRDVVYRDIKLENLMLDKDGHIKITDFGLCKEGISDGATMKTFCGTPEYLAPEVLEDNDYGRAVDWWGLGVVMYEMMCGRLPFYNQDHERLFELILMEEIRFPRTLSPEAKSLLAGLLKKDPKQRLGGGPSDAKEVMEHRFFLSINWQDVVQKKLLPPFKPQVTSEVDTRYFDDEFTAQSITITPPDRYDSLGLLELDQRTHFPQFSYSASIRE

Homo sapiens = species: Homo sapiens; assay: Inhibition of recombinant full length human His-tagged CDK1/CyclinB expressed in baculovirus expression system using serine/threonine-18 peptide as substrate at 10 uM incubated for 60 mins in presence of ATP by Z'-LYTE assay
[2] = target: T1, Cyclin-dependent kinase 5/CDK5 activator 1 (Homo sapiens) (UniProt Q00535+Q15078); assay: Inhibition of recombinant full length human GST/His-tagged CDK5/p25 expressed in baculovirus expression system using serine/threonine-12 peptide as substrate at 10 uM incubated for 60 mins in presence of ATP by Z'-LYTE assay
[3] = target: T1, Cyclin-dependent kinase 5/CDK5 activator 1 (Homo sapiens); assay: Inhibition of recombinant full length human GST/His-tagged CDK5/p35 using serine/threonine-12 peptide as substrate at 10 uM incubated for 60 mins in presence of ATP by Z'-LYTE assay; format: protein-complex assay
[4] = target: Dual specificity tyrosine-phosphorylation-regulated kinase 1A (Homo sapiens) (UniProt Q13627); assay: Inhibition of recombinant human full length GST-tagged DYRK1A expressed in baculovirus expression system using serine/threonine-18 peptide as substrate at 10 uM incubated for 60 mins in presence of ATP by Z'-LYTE assay
[5] = target: Dual specificity tyrosine-phosphorylation-regulated kinase 1B (Homo sapiens) (UniProt Q9Y463); assay: Inhibition of recombinant human full length GST-tagged DYRK1B expressed in baculovirus expression system using serine/threonine-18 peptide as substrate at 10 uM incubated for 60 mins in presence of ATP by Z'-LYTE assay
Dual specificity tyrosine-phosphorylation-regulated kinase 1B (Homo sapiens), sequence (Q9Y463 whole entry, looked up): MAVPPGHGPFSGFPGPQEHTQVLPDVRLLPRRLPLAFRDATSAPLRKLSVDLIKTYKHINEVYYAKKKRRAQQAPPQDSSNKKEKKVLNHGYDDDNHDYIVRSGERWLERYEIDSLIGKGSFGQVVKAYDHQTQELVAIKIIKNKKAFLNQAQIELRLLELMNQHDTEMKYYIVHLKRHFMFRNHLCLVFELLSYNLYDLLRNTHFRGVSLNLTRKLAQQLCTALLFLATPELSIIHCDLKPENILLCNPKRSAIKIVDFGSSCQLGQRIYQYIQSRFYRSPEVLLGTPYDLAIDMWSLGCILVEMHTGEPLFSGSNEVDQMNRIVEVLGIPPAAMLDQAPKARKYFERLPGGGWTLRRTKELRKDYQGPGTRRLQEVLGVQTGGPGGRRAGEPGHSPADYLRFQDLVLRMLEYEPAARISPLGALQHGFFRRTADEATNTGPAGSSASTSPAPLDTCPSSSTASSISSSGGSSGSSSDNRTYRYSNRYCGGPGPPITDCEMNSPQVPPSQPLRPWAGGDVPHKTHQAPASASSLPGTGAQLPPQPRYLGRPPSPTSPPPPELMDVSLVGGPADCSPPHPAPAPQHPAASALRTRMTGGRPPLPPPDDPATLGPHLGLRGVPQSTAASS

[6] = target: Receptor-type tyrosine-protein kinase FLT3 (Homo sapiens) (UniProt P36888); assay: Inhibition of recombinant human His-tagged Flt3 expressed in baculovirus expression system using Tyr 02 peptide as substrate at 10 uM incubated for 60 mins in presence of ATP by Z'-LYTE assay
[7] = target: Glycogen synthase kinase-3 beta (Homo sapiens) (UniProt P49841); assay: Inhibition of recombinant human full length His-tagged GSK3B expressed in baculovirus expression system using serine/threonine-09 peptide as substrate at 10 uM incubated for 60 mins in presence of ATP by Z'-LYTE assay
Glycogen synthase kinase-3 beta (Homo sapiens), sequence (P49841 whole entry, looked up): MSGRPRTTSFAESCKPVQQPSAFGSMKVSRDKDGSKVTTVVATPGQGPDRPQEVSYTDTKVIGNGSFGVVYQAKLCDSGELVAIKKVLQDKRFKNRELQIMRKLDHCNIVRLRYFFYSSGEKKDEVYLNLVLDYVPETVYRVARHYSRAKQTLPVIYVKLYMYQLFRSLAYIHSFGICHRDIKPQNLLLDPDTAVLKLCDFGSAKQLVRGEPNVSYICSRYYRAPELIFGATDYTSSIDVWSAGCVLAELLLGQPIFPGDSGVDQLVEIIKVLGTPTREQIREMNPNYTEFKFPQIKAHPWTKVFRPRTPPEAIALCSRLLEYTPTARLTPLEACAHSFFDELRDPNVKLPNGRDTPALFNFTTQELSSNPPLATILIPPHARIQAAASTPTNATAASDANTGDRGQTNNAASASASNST

[8] = target: T2, Interleukin-1 receptor-associated kinase 4 (Homo sapiens) (UniProt Q9NWZ3); assay: Inhibition of recombinant human full length His-tagged IRAK4 expressed in baculovirus expression system using serine/threonine-07 peptide as substrate at 10 uM incubated for 60 mins in presence of ATP by Z'-LYTE assay
T2 sequence (whole entry): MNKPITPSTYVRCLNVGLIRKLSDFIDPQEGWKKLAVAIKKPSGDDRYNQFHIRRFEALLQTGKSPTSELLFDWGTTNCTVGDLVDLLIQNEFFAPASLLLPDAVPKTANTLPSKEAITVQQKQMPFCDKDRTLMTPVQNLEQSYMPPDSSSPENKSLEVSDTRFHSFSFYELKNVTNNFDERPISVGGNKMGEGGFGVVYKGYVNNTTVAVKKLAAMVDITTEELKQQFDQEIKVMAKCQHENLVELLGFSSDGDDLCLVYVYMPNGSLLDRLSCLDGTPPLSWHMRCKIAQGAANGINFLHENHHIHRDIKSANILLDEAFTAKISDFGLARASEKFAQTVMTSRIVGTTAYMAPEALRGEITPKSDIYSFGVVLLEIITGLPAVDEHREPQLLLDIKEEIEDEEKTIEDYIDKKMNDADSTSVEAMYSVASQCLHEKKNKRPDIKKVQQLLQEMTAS

[9] = target: Tyrosine-protein kinase JAK2 (Homo sapiens) (UniProt O60674); assay: Inhibition of recombinant human GST-tagged JAK2 expressed in baculovirus expression system using Tyr-06 peptide as substrate at 10 uM incubated for 60 mins in presence of ATP by Z'-LYTE assay
Tyrosine-protein kinase JAK2 (Homo sapiens), sequence (O60674 whole entry): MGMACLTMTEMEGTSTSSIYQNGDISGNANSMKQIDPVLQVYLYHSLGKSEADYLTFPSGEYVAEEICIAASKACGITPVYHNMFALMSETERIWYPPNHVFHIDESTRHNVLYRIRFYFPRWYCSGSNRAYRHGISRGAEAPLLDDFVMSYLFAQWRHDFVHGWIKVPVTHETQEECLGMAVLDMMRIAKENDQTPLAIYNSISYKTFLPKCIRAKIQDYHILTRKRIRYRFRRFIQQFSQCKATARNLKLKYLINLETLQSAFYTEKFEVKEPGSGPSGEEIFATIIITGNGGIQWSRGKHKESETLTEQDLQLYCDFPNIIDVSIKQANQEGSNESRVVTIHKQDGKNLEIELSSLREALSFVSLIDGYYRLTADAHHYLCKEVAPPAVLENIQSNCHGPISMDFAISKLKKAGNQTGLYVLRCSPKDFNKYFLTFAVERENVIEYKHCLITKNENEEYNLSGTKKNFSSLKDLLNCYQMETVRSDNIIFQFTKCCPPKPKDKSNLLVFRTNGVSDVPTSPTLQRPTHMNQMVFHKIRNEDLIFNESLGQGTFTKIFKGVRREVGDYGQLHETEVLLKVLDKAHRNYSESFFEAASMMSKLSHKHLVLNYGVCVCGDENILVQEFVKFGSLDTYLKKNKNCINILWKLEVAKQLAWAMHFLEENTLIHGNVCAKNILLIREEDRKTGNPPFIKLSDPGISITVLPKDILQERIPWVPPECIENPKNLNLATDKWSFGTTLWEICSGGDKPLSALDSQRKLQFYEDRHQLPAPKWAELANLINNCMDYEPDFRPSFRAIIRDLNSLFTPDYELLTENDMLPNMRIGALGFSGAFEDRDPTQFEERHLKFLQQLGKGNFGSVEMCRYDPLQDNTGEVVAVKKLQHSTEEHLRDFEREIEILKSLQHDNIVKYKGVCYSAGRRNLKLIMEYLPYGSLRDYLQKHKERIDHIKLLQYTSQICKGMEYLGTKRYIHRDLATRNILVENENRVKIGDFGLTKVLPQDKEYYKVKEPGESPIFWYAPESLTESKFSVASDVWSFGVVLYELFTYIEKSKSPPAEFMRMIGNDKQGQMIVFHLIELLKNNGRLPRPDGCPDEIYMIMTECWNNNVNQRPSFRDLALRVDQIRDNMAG

[10] = target: Vascular endothelial growth factor receptor 2 (Homo sapiens) (UniProt P35968); assay: Inhibition of recombinant human His-tagged KDR expressed in baculovirus expression system using Tyr-01 peptide as substrate at 10 uM incubated for 60 mins in presence of ATP by Z'-LYTE assay
[11] = target: Tyrosine-protein kinase Lck (Homo sapiens) (UniProt P06239); assay: Inhibition of recombinant human His-tagged LCK expressed in baculovirus expression system using Tyr-02 peptide as substrate at 10 uM incubated for 60 mins in presence of ATP by Z'-LYTE assay
Tyrosine-protein kinase Lck (Homo sapiens), sequence (P06239 2-509 limits assumed): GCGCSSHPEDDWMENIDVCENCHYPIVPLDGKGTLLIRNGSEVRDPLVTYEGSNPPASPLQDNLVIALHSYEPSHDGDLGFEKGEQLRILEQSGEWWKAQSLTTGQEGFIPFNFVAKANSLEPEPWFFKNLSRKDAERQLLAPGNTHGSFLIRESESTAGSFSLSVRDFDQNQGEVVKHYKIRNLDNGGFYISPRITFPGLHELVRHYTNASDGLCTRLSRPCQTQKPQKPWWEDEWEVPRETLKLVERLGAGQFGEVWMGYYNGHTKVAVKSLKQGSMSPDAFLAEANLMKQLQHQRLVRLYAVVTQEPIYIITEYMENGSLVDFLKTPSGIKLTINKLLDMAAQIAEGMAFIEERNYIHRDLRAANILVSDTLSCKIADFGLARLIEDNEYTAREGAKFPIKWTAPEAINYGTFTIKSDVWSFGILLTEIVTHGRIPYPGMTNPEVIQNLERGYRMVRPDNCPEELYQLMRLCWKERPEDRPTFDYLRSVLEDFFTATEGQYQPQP

[12] = target: T3, Mitogen-activated protein kinase 13 (Homo sapiens) (UniProt O15264); assay: Inhibition of recombinant human full length His-tagged MAPK13 expressed in baculovirus expression system using serine/threonine-03 peptide as substrate at 10 uM incubated for 60 mins in presence of ATP by Z'-LYTE assay
T3 sequence (whole entry): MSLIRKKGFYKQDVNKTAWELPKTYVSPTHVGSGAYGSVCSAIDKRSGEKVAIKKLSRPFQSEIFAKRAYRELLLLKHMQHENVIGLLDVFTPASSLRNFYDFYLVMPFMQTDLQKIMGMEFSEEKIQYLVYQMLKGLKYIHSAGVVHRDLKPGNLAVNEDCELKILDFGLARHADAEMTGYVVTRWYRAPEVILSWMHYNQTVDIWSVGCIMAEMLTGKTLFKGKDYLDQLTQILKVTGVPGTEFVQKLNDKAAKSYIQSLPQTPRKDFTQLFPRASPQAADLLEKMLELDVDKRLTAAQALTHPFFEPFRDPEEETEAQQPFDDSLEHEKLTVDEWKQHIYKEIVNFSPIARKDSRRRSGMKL

[13] = target: Mitogen-activated protein kinase 7 (Homo sapiens) (UniProt Q13164); assay: Inhibition of recombinant human full length GST-tagged MAPK7 expressed in baculovirus expression system using serine/threonine-04 peptide as substrate at 10 uM by Z'-LYTE assay; conditions: time 60.0 min
[14] = target: Serine/threonine-protein kinase MARK2 (Homo sapiens) (UniProt Q7KZI7); assay: Inhibition of recombinant human full length GST-tagged MARK2 expressed in baculovirus expression system using serine/threonine-21 peptide as substrate at 10 uM by Z'-LYTE assay; conditions: time 60.0 min
Serine/threonine-protein kinase MARK2 (Homo sapiens), sequence (Q7KZI7 whole entry): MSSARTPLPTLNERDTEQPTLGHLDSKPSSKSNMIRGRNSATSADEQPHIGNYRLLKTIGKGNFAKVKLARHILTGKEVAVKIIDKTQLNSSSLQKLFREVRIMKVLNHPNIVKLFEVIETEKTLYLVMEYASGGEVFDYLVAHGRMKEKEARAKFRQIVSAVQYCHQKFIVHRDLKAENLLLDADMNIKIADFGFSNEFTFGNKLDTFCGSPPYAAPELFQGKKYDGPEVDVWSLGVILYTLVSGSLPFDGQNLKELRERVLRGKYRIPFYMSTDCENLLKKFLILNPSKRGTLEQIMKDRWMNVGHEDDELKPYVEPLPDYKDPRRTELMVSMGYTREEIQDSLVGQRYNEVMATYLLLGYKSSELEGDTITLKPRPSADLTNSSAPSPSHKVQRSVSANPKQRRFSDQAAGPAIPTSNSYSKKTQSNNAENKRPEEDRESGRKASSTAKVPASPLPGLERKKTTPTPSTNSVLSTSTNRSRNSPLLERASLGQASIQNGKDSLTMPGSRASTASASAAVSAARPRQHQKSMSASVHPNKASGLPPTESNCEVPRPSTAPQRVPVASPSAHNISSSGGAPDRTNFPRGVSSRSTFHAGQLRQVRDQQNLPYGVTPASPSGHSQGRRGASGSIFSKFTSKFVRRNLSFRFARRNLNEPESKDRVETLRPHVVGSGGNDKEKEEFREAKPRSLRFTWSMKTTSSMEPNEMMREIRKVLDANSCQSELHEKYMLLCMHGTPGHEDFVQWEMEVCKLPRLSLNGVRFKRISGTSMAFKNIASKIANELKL

[15] = target: Serine/threonine-protein kinase PAK 1 (Homo sapiens) (UniProt Q13153); assay: Inhibition of recombinant human full length GST-tagged PAK1 expressed in baculovirus expression system using serine/threonine-19 peptide as substrate at 10 uM by Z'-LYTE assay; conditions: time 60.0 min
Serine/threonine-protein kinase PAK 1 (Homo sapiens), sequence (Q13153 whole entry): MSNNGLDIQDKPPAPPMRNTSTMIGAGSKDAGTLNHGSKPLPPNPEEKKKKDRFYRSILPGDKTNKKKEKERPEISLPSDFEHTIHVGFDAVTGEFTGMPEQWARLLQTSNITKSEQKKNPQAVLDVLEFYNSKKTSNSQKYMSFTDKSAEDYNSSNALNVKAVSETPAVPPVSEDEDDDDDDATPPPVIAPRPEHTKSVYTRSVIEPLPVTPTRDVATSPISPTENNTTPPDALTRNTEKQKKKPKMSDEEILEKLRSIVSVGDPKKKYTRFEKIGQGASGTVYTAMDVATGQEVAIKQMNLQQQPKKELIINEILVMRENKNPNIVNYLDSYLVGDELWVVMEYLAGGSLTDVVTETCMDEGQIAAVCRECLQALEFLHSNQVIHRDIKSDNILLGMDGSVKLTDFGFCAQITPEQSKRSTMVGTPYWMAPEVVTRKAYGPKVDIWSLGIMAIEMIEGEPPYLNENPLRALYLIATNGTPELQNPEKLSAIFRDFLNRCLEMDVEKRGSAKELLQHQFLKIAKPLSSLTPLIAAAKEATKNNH

[16] = target: Serine/threonine-protein kinase pim-2 (Homo sapiens) (UniProt Q9P1W9); assay: Inhibition of recombinant human GST-tagged PIM2 expressed in baculovirus expression system using serine/threonine-07 peptide as substrate at 10 uM by Z'-LYTE assay; conditions: time 60.0 min
Serine/threonine-protein kinase pim-2 (Homo sapiens), sequence (Q9P1W9 whole entry, looked up): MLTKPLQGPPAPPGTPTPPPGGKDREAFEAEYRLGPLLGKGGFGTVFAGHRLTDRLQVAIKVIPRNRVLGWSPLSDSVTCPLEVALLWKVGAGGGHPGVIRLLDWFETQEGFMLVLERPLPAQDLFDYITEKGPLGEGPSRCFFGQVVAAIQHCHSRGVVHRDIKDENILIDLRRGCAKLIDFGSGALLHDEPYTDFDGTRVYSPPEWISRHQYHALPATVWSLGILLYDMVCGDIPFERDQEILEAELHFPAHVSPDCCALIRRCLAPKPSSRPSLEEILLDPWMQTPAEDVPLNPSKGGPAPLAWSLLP

[17] = target: cAMP-dependent protein kinase catalytic subunit alpha (Homo sapiens) (UniProt P17612); assay: Inhibition of recombinant human His-tagged PRKACA expressed in Escherichia coli expression system using serine/threonine-01 peptide as substrate at 10 uM by Z'-LYTE assay; conditions: time 60.0 min

Measured: inhibition

Clc1cccc(CSc2ncnc3[nH]cnc23)c1
inactive: all assays above

Brc1ccccc1CSc1ncnc2[nH]cnc12
inactive: all assays above

c1ccc(CSc2ncnc3[nH]cnc23)cc1
inactive: all assays above
